Test results from patent US12281363B2, “Methods for detecting antiviral-drug resistant virus” (Secretary of State for Health and Social Care, priority 2018, dated 2025).
Read-outs that look alike come from different tables or passages of the source.

System: HSV-1
Assay: Plaque reduction assay, HSV-1 clinical isolates on Vero cells
Type: cell-based
Conditions: Human alphaherpesvirus 1, Vero
How it was run: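 Susceptibility of HSV-1 isolates was read as percent plaque reduction versus no-drug control, counted on fixed, crystal-violet-stained sub-confluent Vero cells infected at 75 PFU/well beneath CMC. Intermediate resistance lies between cut-offs ACV <3/>40 μM, PCV <10/>40 μM, CDV <24/>30 μM, FOS <250/>400 μM.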

Work on `Nc1nc2c(ncn2CCC(CO)CO)c(=O)[nH]1` [Penciclovir, penciclovir] yielded an IC50 (72 h, isolate HPG053, HSV-1 pol L802R + A834S (2405T>G, 2500G>T), also TK R176W, read-out: Drug susceptibility (IC50 value)) of over 160 µM, an IC50 (isolate HPG002, HSV-1 pol E992K (2974G>A), also TK insert (G) nt 430-436, pol A1169T, read-out: Drug susceptibility (IC50 value)) of over 160 µM and an IC50 (isolate HPG002, HSV-1 pol E992K (2974G>A), also TK insert (G) nt 430-436, pol A1169T, read-out: Drug susceptibility Penciclovir (PCV)) of over 40 µM. It also gave an IC50 (isolate HPG003, HSV-1 TK Y172S (515A>C), read-out: Drug susceptibility (IC50 value)) of 106 µM, an IC50 (isolate HPG003, HSV-1 TK Y172S (515A>C), read-out: Drug susceptibility Penciclovir (PCV)) of over 40 µM and an IC50 (isolate HPG005, HSV-1 TK A37V (110C>T), read-out: Drug susceptibility (IC50 value)) of 5.19 µM. For the same compound, the IC50 (isolate HPG005, HSV-1 TK A37V (110C>T), read-out: Drug susceptibility Penciclovir (PCV)) was under 10 µM, the IC50 (isolate HPG008, HSV-1 TK V204G (611T>G), read-out: Drug susceptibility (IC50 value)) was over 160 µM and the IC50 (isolate HPG008, HSV-1 TK V204G (611T>G), read-out: Drug susceptibility Penciclovir (PCV)) was over 40 µM. For the same compound, the IC50 (isolate HPG009, HSV-1 pol E992K (2974G>A), also pol A1169T, read-out: Drug susceptibility (IC50 value)) was 4.05 µM, the IC50 (isolate HPG009, HSV-1 pol E992K (2974G>A), also pol A1169T, read-out: Drug susceptibility Penciclovir (PCV)) was under 10 µM and the IC50 (isolate HPG010, HSV-1 TK Q125* (373C>T), read-out: Drug susceptibility (IC50 value)) was 87.1 µM. The IC50 (isolate HPG010, HSV-1 TK Q125* (373C>T), read-out: Drug susceptibility Penciclovir (PCV)) was over 40 µM, the IC50 (isolate HPG011, HSV-1 TK Q125* (373C>T), read-out: Drug susceptibility (IC50 value)) was 108 µM and the IC50 (isolate HPG011, HSV-1 TK Q125* (373C>T), read-out: Drug susceptibility Penciclovir (PCV)) was over 40 µM. For the same compound, the IC50 (isolate HPG013, HSV-1 TK M121I (363G>A), read-out: Drug susceptibility (IC50 value)) was 105 µM, the IC50 (isolate HPG013, HSV-1 TK M121I (363G>A), read-out: Drug susceptibility Penciclovir (PCV)) was over 40 µM and the IC50 (isolate HPG013, HSV-1 pol D83A (248A>C), also TK M121I, pol A1169T, read-out: Drug susceptibility (IC50 value)) was 105 µM. It also gave an IC50 (isolate HPG013, HSV-1 pol D83A (248A>C), also TK M121I, pol A1169T, read-out: Drug susceptibility Penciclovir (PCV)) of over 40 µM, an IC50 (isolate HPG014, HSV-1 pol A1115T (3343G>A), read-out: Drug susceptibility (IC50 value)) of 5.66 µM and an IC50 (isolate HPG014, HSV-1 pol A1115T (3343G>A), read-out: Drug susceptibility Penciclovir (PCV)) of under 10 µM. For the same compound, the IC50 (isolate HPG014, HSV-1 pol R993C (2977C>T), read-out: Drug susceptibility (IC50 value)) was 5.66 µM, the IC50 (isolate HPG014, HSV-1 pol R993C (2977C>T), read-out: Drug susceptibility Penciclovir (PCV)) was under 10 µM and the IC50 (isolate HPG014, HSV-1 pol T54A (160A>G), read-out: Drug susceptibility (IC50 value)) was 5.66 µM. It also gave an IC50 (isolate HPG014, HSV-1 pol T54A (160A>G), read-out: Drug susceptibility Penciclovir (PCV)) of under 10 µM, an IC50 (isolate HPG015, HSV-1 pol 966stop or F965_I966insF (2892_2893insT to 2895_2896insT), read-out: Drug susceptibility (IC50 value)) of 8.48 µM and an IC50 (isolate HPG015, HSV-1 pol 966stop or F965_I966insF (2892_2893insT to 2895_2896insT), read-out: Drug susceptibility Penciclovir (PCV)) of under 10 µM. For the same compound, the IC50 (isolate HPG018, HSV-1 TK frameshift (881delC to 885delC), read-out: Drug susceptibility (IC50 value)) was 117 µM, the IC50 (isolate HPG018, HSV-1 TK frameshift (881delC to 885delC), read-out: Drug susceptibility Penciclovir (PCV)) was over 40 µM and the IC50 (isolate HPG018, HSV-1 pol P1199T (3595C>A), also TK deletion (C) nt 881-885, pol A1169T, read-out: Drug susceptibility (IC50 value)) was 117 µM. It also gave an IC50 (isolate HPG018, HSV-1 pol P1199T (3595C>A), also TK deletion (C) nt 881-885, pol A1169T, read-out: Drug susceptibility Penciclovir (PCV)) of over 40 µM, an IC50 (isolate HPG019, HSV-1 pol K750T (2249A>C), also TK deletion (G) nt 430-436, pol A1169T, read-out: Drug susceptibility (IC50 value)) of over 160 µM and an IC50 (isolate HPG019, HSV-1 pol K750T (2249A>C), also TK deletion (G) nt 430-436, pol A1169T, read-out: Drug susceptibility Penciclovir (PCV)) of over 40 µM. For the same compound, the IC50 (isolate HPG020, HSV-1 pol S911N (2732G>A), also pol A1169T, read-out: Drug susceptibility (IC50 value)) was 2.48 µM, the IC50 (isolate HPG020, HSV-1 pol S911N (2732G>A), also pol A1169T, read-out: Drug susceptibility Penciclovir (PCV)) was under 10 µM and the IC50 (isolate HPG021, HSV-1 pol R681Q (2042G>A), also TK deletion (G) nt 430-436, read-out: Drug susceptibility (IC50 value)) was over 160 µM. The IC50 (isolate HPG021, HSV-1 pol R681Q (2042G>A), also TK deletion (G) nt 430-436, read-out: Drug susceptibility Penciclovir (PCV)) was over 40 µM, the IC50 (isolate HPG021, HSV-1 pol T839A (2515A>G), also TK deletion (G) nt 430-436, read-out: Drug susceptibility (IC50 value)) was over 160 µM and the IC50 (isolate HPG021, HSV-1 pol T839A (2515A>G), also TK deletion (G) nt 430-436, read-out: Drug susceptibility Penciclovir (PCV)) was over 40 µM. It also gave an IC50 (isolate HPG025, HSV-1 pol E850Q (2548G>C), also TK R216C, read-out: Drug susceptibility (IC50 value)) of 118 µM, an IC50 (isolate HPG025, HSV-1 pol E850Q (2548G>C), also TK R216C, read-out: Drug susceptibility Penciclovir (PCV)) of over 40 µM and an IC50 (isolate HPG026, HSV-1 pol E850Q (2548G>C), also TK R216C, pol A1169T, read-out: Drug susceptibility (IC50 value)) of 35 µM. For the same compound, the IC50 (isolate HPG026, HSV-1 pol E850Q (2548G>C), also TK R216C, pol A1169T, read-out: Drug susceptibility Penciclovir (PCV)) was 10 to 40 µM, the IC50 (isolate HPG027, HSV-1 TK V204G (611T>G), also pol S914L, A1169AT, read-out: Drug susceptibility (IC50 value)) was over 160 µM and the IC50 (isolate HPG027, HSV-1 TK V204G (611T>G), also pol S914L, A1169AT, read-out: Drug susceptibility Penciclovir (PCV)) was over 40 µM. For the same compound, the IC50 (isolate HPG027, HSV-1 pol S914L (2741C>T), also TK V204G, pol A1169T, read-out: Drug susceptibility (IC50 value)) was over 160 µM, the IC50 (isolate HPG027, HSV-1 pol S914L (2741C>T), also TK V204G, pol A1169T, read-out: Drug susceptibility Penciclovir (PCV)) was over 40 µM and the IC50 (isolate HPG029, HSV-1 TK Y172S (515A>C), read-out: Drug susceptibility (IC50 value)) was over 160 µM. For the same compound, the IC50 (isolate HPG029, HSV-1 TK Y172S (515A>C), read-out: Drug susceptibility Penciclovir (PCV)) was over 40 µM, the IC50 (isolate HPG031, HSV-1 pol E1120A (3359A>C), also a TK resistance mutation (footnote e), read-out: Drug susceptibility (IC50 value)) was 156 µM and the IC50 (isolate HPG031, HSV-1 pol E1120A (3359A>C), also a TK resistance mutation (footnote e), read-out: Drug susceptibility Penciclovir (PCV)) was over 40 µM. The IC50 (isolate HPG031, HSV-1 pol G139R (415G>C or 415G>A), also a TK resistance mutation (footnote e), read-out: Drug susceptibility (IC50 value)) was 156 µM, the IC50 (isolate HPG031, HSV-1 pol G139R (415G>C or 415G>A), also a TK resistance mutation (footnote e), read-out: Drug susceptibility Penciclovir (PCV)) was over 40 µM and the IC50 (isolate HPG032, HSV-1 TK 183* (437_438insA), read-out: Drug susceptibility (IC50 value)) was over 160 µM. It also gave an IC50 (isolate HPG032, HSV-1 TK 183* (437_438insA), read-out: Drug susceptibility Penciclovir (PCV)) of over 40 µM.
